According to patent US20080221084A1, “METHOD FOR REDUCING INFARCTION USING VASOPRESSIN ANTAGONIST COMPOUNDS, AND COMPOSITIONS AND COMBINATIONS THEREFOR” (OTSUKA PHARMACEUTICAL CO., LTD., priority 2006, published 2008):

Experiments:
[1] = test system: regional cardiac ischemia/reperfusion in rat heart; assay: 20 minutes regional cardiac ischemia and 3 hours reperfusion in hyponatremic rats: myocardial infarction, risk size, hemodynamics; format: in vivo, rat (male Sprague-Dawley); settings: 20 min regional ischemia, 3 h reperfusion on day 14, compared with saline-infused or vehicle-treated rats, TTC staining
Text: The condition of hypotonic hyponatremia was created by infusing a selective vasopressin V2 agonist, DDAVP, into rats using an osmotic minipump implanted subcutaneously for 14 days in animals with access to only liquid food (a model of SIADH: syndrome of inappropriate antidiuretic hormone secretion). Control rats had the same surgical implantation of an osmotic minipump filled with saline. Rats either received a daily oral administration of tolvaptan or vehicle in an escalating dosing regime. At the end of the 14-day period, rats were subjected to 20 minutes of regional cardiac ischemia and 3 hours of reperfusion, and myocardial infarction was determined. At the final day of the study (day 14), rats were anesthetized, and the chest was open. Hearts were subjected to 20 minutes of regional ischemia followed by 3 hours of reperfusion. On day 14, rats were anesthetized with pentobarbital (30 mg/kg) by an intraperitoneal injection. Once anesthesia was induced, a tracheotomy was performed, and the trachea was cannulated and the animal was attached to a respirator. An oxygen supplement was fed into the tracheal line to maintain the pO2 above 100 mmHg. A cannula was inserted into the right carotid artery to monitor blood pressure and heart rate. The heart was exposed through a left thoracotomy in the fourth intercostal space, and the pericardium opened. A snare was placed around a major branch of the left coronary artery of the animal using a 5-0 suture. The suture ends were passed through a small segment of pliable polyethylene tubing to form a snare. Regional ischemia was induced by pulling the silk tightly through the tubing and clamping the tube with a hemostat. Experiments involved 20 minutes of ischemia and 3 hr reperfusion, which was achieved by releasing the snare. Myocardial ischemia and reperfusion were confirmed by the observation of regional cyanosis and hyperemia, respectively. […] Infarct size was determined by planimetry and expressed as a percentage of risk area infarcted. Data were expressed as the Mean ±SD (standard deviation). […]

[2] = test system: rats with hypotonic hyponatremia (model of SIADH); assay: DDAVP-induced hypotonic hyponatremia in rats (model of SIADH): plasma sodium and osmolarity; format: in vivo, rat (male Sprague-Dawley); settings: day 14, end of experiment; DDAVP infused 1 ng/h s.c. for 14 days, liquid diet; Mean ±SD
Text: The condition of hypotonic hyponatremia was created by infusing a selective vasopressin V2 agonist, DDAVP, into rats using an osmotic minipump implanted subcutaneously for 14 days in animals with access to only liquid food (a model of SIADH: syndrome of inappropriate antidiuretic hormone secretion). […] Rats either received a daily oral administration of tolvaptan or vehicle in an escalating dosing regime.
Tolvaptan was supplied as a spray-dried formulation, which is a mixture of tolvaptan (free form) and hydroxypropylcellulose (HPC-SL) at a ratio of 2:1. Therefore, the amount of tolvaptan (spray-dried form) was 1.5 times that of tolvaptan (free form). Tolvaptan was suspended in 1% hydroxypropylmethylcellulose solution.
The V2 agonist DDAVP ([deamino-Cys1, D-Arg8]-vasopressin was dissolved in saline (2 μg/mL).
Male Sprague-Dawley rats weighing 150-175 grams were used. Rats had access to feed and tap water. From day −3 (see the timeline in FIG. 1), rats were fed with a customized liquid food (RD-LD89 All-Purpose Liquid Diet Premix, Research Diets, Inc, New Brunswick, N.J.) and no additional food or water was provided. The liquid diet was mixed with water according to manufacturer's instructions.
Rats were acclimated for 3 days to liquid food before the study. Hyponatremia was induced by continuous subcutaneous infusion of 1 ng/h of DDAVP per animal using osmotic minipumps (infusion rate: 0.5 μL/h, ALZET model 2002, DURECT Corporation, Cupertino, Calif.) for 14 days (see FIG. 1). On day 0 when the osmotic minipump was implanted, rats were anesthetized by an intraperitoneal injection of a mixture of ketamine (40 mg/kg) and xylazine (5 mg/kg). The following procedure of implanting minipumps was performed using aseptic techniques. An area 4 cm long and 3 cm wide on the back of the animal (slightly posterior to the scapulae) was shaved and cleaned. A 1 cm cross mid-scapular incision was made. A hemostat was inserted into the incision and a pocket for the pump was created by opening and closing the jaw of the hemostat to spread the subcutaneous tissue. The pump (length 3 cm, diameter 0.7 cm and 0.4 grams) was inserted into the pocket, delivery portal first. The wound was closed with wound clips, and animals were placed on a heating pad for recovery, and eventually returned back to the cage.
On day 2 after the surgery, animals were switched to a nutritionally complete liquid food diet containing 14% dextrose (see FIG. 1). No additional water or solid food was provided.
Starting from day 4, an escalating dosing regime of tolvaptan or vehicle was used from 0.25 mg/kg to 10 mg/kg daily.

Row | SMILES | myocardial infarct size (percentage of risk area infarcted) [1] | plasma osmolarity [2] | plasma sodium [2] | myocardial infarct size (percentage of risk area infarcted) ([1]; listed as tolvaptan)
1 | NC(=O)CC[C@@H]1NC(=O)[C@H](Cc2ccccc2)NC(=O)[C@H](Cc2ccc(O)cc2)NC(=O)CCSSC[C@@H](C(=O)N2CCC[C@H]2C(=O)N[C@H](CCCN=C(N)N)C(=O)NCC(N)=O)NC(=O)[C@H](CC(N)=O)NC1=O [DDAVP, [deamino-Cys1, D-Arg8]-vasopressin] | more than double | 264±6 mOsm/kg | 114 ± 7 mmol/L | 
2 | Cc1ccccc1C(=O)Nc1ccc(C(=O)N2CCCC(O)c3cc(Cl)ccc32)c(C)c1 (stereo not shown) [Tolvaptan, 7-chloro-5-hydroxy-1-[2-methyl-4-(2-methylbenzoyl-amino)benzoyl]-2,3,4,5-tetrahydro-1H-benzazepine] | reduced the infarct size in DDAVP-infused rats to a level similar to that in saline-infused rats | 304±8 mOsm/kg | 140 ± 3 mmol/L | much smaller degree as compared with that in vehicle-treated rats
